One assay has as its system U266 (multiple myelom). Nature of the assay: CellTiter-Blue cell viability assay. In kind it is cell-based. The settings on record: Homo sapiens, read-out: IC50 U266 (cell viability). As to the method:
(§1) Method for Measurement of Cell Viability
(§2) The CellTiter-Blue® Cell Viability Assay (Promega) provides a homogeneous, fluorometric method for estimating the number of viable cells present in multi-well plates. The assay uses the indicator dye resazurin to measure the metabolic capacity of cells. Viable cells retain the ability to reduce resazurin into resorufin, which is highly fluorescent.
(§3) Stock solutions (10 mM in DMSO) of compounds were serially diluted 1:2 in 11 concentrations. 50 nL/well (10 mM compound stock in DMSO) was acoustically dispensed in 384-well assay plates with an acoustic dispenser (EDC Biosystems ATS-100AV). Final starting concentration in the assay was 20 μM (0.2% DMSO) for test compounds. […] After 72 hours, Celltiter Blue reagent (Promega #G8081) was diluted 1:10 with PBS and then added to wells (5 μL/well). The plates were incubated for 2 hours following addition of reagent. […] Results were calculated as % cell viability compared to background (cells treated with 0.2% DMSO).
In general terms: The colour change of resazurin is a common sign of viable cells or microbes.

The test system of assay [1] is PBMC (peripheral blood mononuclear cells from healthy donors). Nature of the assay: CellTiter-Blue cell viability assay. The format is cell-based. The settings on record: read-out: IC50 healthy PBMC (cell viability). As to the method:
as §1, §2, §3

Another assay concerns PaCa2 (pancreatic). Put plainly: CellTiter-Blue cell viability assay. In kind it is cell-based. The settings on record: read-out: IC50 PaCa2 (cell viability). Here is the method: as §1, §2, §3
Another assay has as its system AMO-1 (plasmacytom). Put plainly: CellTiter-Blue cell viability assay. In kind it is cell-based. The settings on record: Homo sapiens, read-out: IC50 AMO-1 (cell viability). As to the method:
as §1, §2, §3

For a further assay, the target named is HDAC2 (Homo sapiens (Human), UniProt Q92769). Put plainly: HDAC in vitro enzymatic assay (fluorescence). The settings on record: read-out: IC50 HDAC2; selectivity profiling; top concentration 200 μM.
A further assay concerns the target HDAC1 (Homo sapiens (Human), UniProt Q13547). Nature of the assay: HDAC in vitro enzymatic assay (fluorescence). To be noted: read-out: IC50 HDAC1; selectivity profiling; top concentration 200 μM.
Another assay addresses HDAC8 (Homo sapiens (Human), UniProt Q9BY41). Put plainly: HDAC in vitro enzymatic assay (fluorescence). To be noted: read-out: IC50 HDAC8; selectivity profiling; top concentration 200 μM.
Another assay concerns the target HDAC6 (Homo sapiens (Human), UniProt Q9UBN7). Nature of the assay: HDAC in vitro enzymatic assay (fluorescence). The format is biochemical. To be noted: top concentration 2 μM. Here is the method: Biological Tests Method for Measurement of Enzymatic Activity of HDACs Materials & Methods
All Examples were tested in HDAC1, 2, 3, 6 and 8 in vitro enzymatic assays. The assay principle is well known (Hauser et al. 2009, Bradner et al. 2010) and all necessary reagents like enzymes, substrates, developer and reference compounds are commercially available (see e.g. BPS Biosciences http://www.bpsbioscience.com/). A series of dilutions of the compounds were prepared with a top concentration of 200 μM (2 μM for HDAC6). The enzymatic reactions were conducted in a mixture containing assay buffer, bovine serum albumin, HDAC substrate, and a test compound. After enzymatic reaction, developer was added and after an additional incubation time, fluorescence intensity was measured at an excitation wavelength of 360 nm and an emission wavelength of 460 nm. A selection of the Examples were tested in a full HDAC panel containing HDAC1, 2, 3, 4, 5, 6, 7, 8, 9, 10 and 11 in vitro enzymatic assays. The tests were performed as above except that a series of dilutions of the compounds were prepared with a top concentration of 10 μM for all HDACs.

For a further assay, the target named is HDAC3 (Homo sapiens (Human), UniProt O15379). Nature of the assay: HDAC in vitro enzymatic assay (fluorescence). The settings on record: read-out: IC50 HDAC3; selectivity profiling; top concentration 200 μM.
[2] abbreviates: U-266, U266 cells, 72 hours of treatment.
The mark [3] stands for this setting: healthy PBMC, 72 hours of treatment.
The mark [4] stands for this setting: PaCa-2, PaCa2 cells, 72 hours of treatment.
[5] abbreviates: AMO1, AMO-1 cells, 72 hours of treatment.
Setting [6] is: selectivity profiling, read-out: IC50 HDAC6.
[7] abbreviates: read-out: IC50 values for inhibition of HDAC6.

A word on the IC50: it is the concentration that inhibits the measured activity by half.

Structures can show the parent of a compound that is named as a salt. Where two headings read alike, the source gives them in different places.

Chain of HDAC3 (O15379 whole entry): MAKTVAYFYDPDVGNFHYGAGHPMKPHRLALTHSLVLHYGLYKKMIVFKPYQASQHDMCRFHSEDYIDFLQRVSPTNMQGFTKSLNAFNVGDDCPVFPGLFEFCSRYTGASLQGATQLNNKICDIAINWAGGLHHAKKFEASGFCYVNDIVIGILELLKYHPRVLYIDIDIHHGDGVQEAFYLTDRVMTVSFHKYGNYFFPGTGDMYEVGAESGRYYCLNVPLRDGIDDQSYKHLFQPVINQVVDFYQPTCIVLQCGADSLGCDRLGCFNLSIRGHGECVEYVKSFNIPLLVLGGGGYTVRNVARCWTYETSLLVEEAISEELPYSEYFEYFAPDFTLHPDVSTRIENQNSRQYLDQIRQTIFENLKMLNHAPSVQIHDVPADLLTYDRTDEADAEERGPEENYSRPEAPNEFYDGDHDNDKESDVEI
Chain of HDAC3 (Q9Y618 395-489 partner): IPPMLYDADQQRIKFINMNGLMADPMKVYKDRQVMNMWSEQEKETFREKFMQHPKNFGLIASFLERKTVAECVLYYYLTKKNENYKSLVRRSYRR
Chain of HDAC8 (Q9BY41 whole entry): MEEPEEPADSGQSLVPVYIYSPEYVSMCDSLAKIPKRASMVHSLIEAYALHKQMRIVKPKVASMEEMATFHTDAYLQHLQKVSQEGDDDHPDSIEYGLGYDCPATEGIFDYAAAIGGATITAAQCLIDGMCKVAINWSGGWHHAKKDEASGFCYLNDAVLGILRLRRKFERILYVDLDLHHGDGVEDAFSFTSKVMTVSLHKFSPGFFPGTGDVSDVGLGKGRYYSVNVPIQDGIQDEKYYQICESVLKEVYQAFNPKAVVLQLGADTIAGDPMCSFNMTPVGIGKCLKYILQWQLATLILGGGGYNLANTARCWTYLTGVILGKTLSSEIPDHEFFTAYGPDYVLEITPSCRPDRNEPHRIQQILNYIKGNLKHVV
Chain of HDAC2 (Q92769 whole entry): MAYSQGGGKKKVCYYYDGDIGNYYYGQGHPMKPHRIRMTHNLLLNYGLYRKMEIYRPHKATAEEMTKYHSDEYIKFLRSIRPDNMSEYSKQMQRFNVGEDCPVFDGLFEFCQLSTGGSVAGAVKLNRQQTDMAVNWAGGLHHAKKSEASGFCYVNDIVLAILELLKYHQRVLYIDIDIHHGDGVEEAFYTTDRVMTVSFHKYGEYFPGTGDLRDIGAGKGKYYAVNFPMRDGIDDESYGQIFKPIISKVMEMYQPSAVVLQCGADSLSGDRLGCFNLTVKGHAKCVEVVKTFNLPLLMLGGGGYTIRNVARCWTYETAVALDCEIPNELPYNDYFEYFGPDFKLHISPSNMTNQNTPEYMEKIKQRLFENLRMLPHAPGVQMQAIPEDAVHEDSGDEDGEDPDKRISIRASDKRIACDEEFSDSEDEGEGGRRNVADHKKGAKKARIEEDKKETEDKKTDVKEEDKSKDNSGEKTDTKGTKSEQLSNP
Chain of HDAC1 (Q13547 whole entry): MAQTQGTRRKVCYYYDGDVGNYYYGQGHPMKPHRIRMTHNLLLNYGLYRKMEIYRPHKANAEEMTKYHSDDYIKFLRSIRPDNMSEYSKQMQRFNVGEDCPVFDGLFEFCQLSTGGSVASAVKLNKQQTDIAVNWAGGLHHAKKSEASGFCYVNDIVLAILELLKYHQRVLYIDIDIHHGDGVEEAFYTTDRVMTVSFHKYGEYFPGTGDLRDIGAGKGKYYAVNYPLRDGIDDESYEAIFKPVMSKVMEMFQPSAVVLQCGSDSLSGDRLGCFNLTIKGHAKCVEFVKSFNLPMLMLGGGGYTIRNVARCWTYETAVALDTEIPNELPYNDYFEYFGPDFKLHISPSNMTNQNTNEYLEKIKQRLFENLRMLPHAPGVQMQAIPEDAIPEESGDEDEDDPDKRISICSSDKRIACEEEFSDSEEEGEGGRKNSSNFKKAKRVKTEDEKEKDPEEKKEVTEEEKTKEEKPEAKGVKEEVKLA

Take `O=C(NO)c1ccc2nc(-c3ccc(Oc4ccccc4)cc3)[nH]c2c1` [Example 8, N-hydroxy-2-(4-phenoxyphenyl)-1H-benzimidazole-6-carboxamide]: the IC50 was 2000 nM in the assay on U266 (multiple myelom) (setting [2]), above 20000 nM in assay [1] (setting [3]), 1700 nM in the assay on PaCa2 (pancreatic) (setting [4]) and 2300 nM in the assay with AMO-1 (plasmacytom) (setting [5]).
Take `CCCCc1ccc(-c2nc3ccc(C(=O)NO)cc3[nH]2)cc1` [Example 162, 2-(4-butylphenyl)-N-hydroxy-1H-benzimidazole-6-carboxamide]: the IC50 at HDAC2 is 94000 nM; on HDAC1, 7700 nM; with U266 (multiple myelom) (U-266, 72 h), 740 nM; in assay [1] (PBMC, 72 h), above 20000 nM; in the assay on PaCa2 (pancreatic) (PaCa-2, 72 h), 820 nM; with AMO-1 (plasmacytom) (AMO1, 72 h) it was 3700 nM. In addition, the IC50 was 190 nM at HDAC8, 31 nM on HDAC6 (setting [6]), 31 nM on HDAC6 (setting [7]) and 11000 nM at HDAC3.
For the molecule `O=C(NO)c1ccc2nc(-c3cccc(C(F)(F)F)c3Cl)[nH]c2c1` [Example 34, 2-[2-chloro-3-(trifluoromethyl)phenyl]-N-hydroxy-1H-benzimidazole-6-carboxamide], the concentration for half-maximal inhibition (IC50) in the assay with U266 (multiple myelom) (setting [2]) was 3900 nM; in assay [1] (setting [3]), above 20000 nM; in the assay on PaCa2 (pancreatic) (setting [4]) it was 12000 nM; in the assay with AMO-1 (plasmacytom) (setting [5]) it was 10000 nM.
Turning to `O=C(NO)c1ccc2nc(-c3ccc(-c4cccc(Cl)c4)s3)[nH]c2c1` [Example 177, 2-[5-(3-chlorophenyl)thiophen-2-yl]-N-hydroxy-1H-benzimidazole-6-carboxamide], the IC50 in the assay on U266 (multiple myelom) (setting [2]) is 620 nM; in assay [1] (setting [3]) it was above 20000 nM; in the assay with PaCa2 (pancreatic) (setting [4]) it was 1100 nM; with AMO-1 (plasmacytom) (setting [5]), 3500 nM; on HDAC6 (setting [7]), 5.1 nM.
Take `CCCCCCCCCc1ccc(-c2nc3ccc(C(=O)NO)cc3[nH]2)cc1` [Example 161, 2-(4-nonylphenyl)-N-hydroxy-1H-benzimidazole-6-carboxamide]: the IC50 is 640 nM with U266 (multiple myelom) (setting [2]), above 20000 nM in [1] (setting [3]), 610 nM with PaCa2 (pancreatic) (setting [4]) and 5500 nM in the assay with AMO-1 (plasmacytom) (setting [5]).
Consider `COc1ccc2cc(-c3nc4ccc(C(=O)NO)cc4[nH]3)ccc2c1` [Example 10, N-hydroxy-2-(6-methoxynaphthalen-2-yl)-1H-benzimidazole-6-carboxamide], for which the IC50 in the assay with U266 (multiple myelom) (setting [2]) was 2100 nM; in [1] (setting [3]), above 20000 nM; in the assay with PaCa2 (pancreatic) (setting [4]), 1200 nM; in the assay with AMO-1 (plasmacytom) (setting [5]) it was 2200 nM.
Turning to `CC(C)(C)c1ccc(-c2nc3ccc(C(=O)NO)cc3[nH]2)cc1` [Example 159, 2-(4-tert-butylphenyl)-N-hydroxy-1H-benzimidazole-6-carboxamide], the IC50 in the assay with U266 (multiple myelom) (setting [2]) was 1200 nM; in [1] (setting [3]) it was above 20000 nM; with PaCa2 (pancreatic) (setting [4]), 2100 nM; in the assay on AMO-1 (plasmacytom) (setting [5]), 6300 nM; on HDAC6 (setting [7]) it was 19 nM.
Consider `O=C(NO)c1ccc2nc(-c3ccc(-c4ccccc4)cc3)[nH]c2c1` [Example 6, 2-biphenyl-4-yl-N-hydroxy-1H-benzimidazole-6-carboxamide], for which the IC50 at HDAC2 was 160000 nM; at HDAC1, 51000 nM; with U266 (multiple myelom) (U-266, 72 h), 540 nM; in [1] (PBMC, 72 h), above 20000 nM; in the assay with PaCa2 (pancreatic) (PaCa-2, 72 h) it was 410 nM; in the assay on AMO-1 (plasmacytom) (AMO1, 72 h), 1700 nM. Besides, the IC50 on HDAC8 stood at 470 nM; at HDAC6 (setting [6]), 15 nM; on HDAC6 (setting [7]) it was 15 nM; at HDAC3 it was 2100 nM.
Consider `CC(C)c1ccc(-c2nc3ccc(C(=O)NO)cc3[nH]2)cc1` [Example 50, N-hydroxy-2-[4-(1-methylethyl)phenyl]-1H-benzimidazole-6-carboxamide], for which the 50% inhibitory concentration (IC50) on HDAC2 was 32000 nM; on HDAC1 it was 3300 nM; with U266 (multiple myelom) (U-266, 72 h), 580 nM; in assay [1] (PBMC, 72 h) it was above 20000 nM; in the assay with PaCa2 (pancreatic) (PaCa-2, 72 h) it was 290 nM; in the assay with AMO-1 (plasmacytom) (AMO1, 72 h) it was 2000 nM. The IC50 on HDAC8 amounted to 420 nM; on HDAC6 (setting [6]), 14 nM; on HDAC6 (setting [7]), 14 nM; at HDAC3, 3400 nM.
Consider `O=C(NO)c1ccc2nc(-c3ccc(Br)cc3)[nH]c2c1` [Example 3, 2-(4-bromophenyl)-N-hydroxy-1H-benzimidazole-6-carboxamide], for which the IC50 was 2900 nM with U266 (multiple myelom) (setting [2]); above 20000 nM in assay [1] (setting [3]); 6000 nM with PaCa2 (pancreatic) (setting [4]); 6300 nM with AMO-1 (plasmacytom) (setting [5]); 45 nM at HDAC6 (setting [7]).
As for `O=C(NO)c1ccc2nc(-c3cccc(Br)c3)[nH]c2c1` [Example 21, 2-(3-bromophenyl)-N-hydroxy-1H-benzimidazole-6-carboxamide], the IC50 is 9300 nM on HDAC2; 1500 nM at HDAC1; 7800 nM with U266 (multiple myelom) (U-266, 72 h); above 20000 nM in assay [1] (PBMC, 72 h); 4300 nM in the assay with PaCa2 (pancreatic) (PaCa-2, 72 h); 7000 nM in the assay on AMO-1 (plasmacytom) (AMO1, 72 h). Moreover, the IC50 at HDAC8 was found to be 62 nM; at HDAC6 (setting [6]) it was 12 nM; at HDAC6 (setting [7]), 12 nM; at HDAC3 it was 780 nM.
As for `Cn1c(-c2ccc(-c3ccccc3)cc2)nc2cc(C(=O)NO)ccc21` [Example 225, 2-biphenyl-4-yl-N-hydroxy-1-methyl-1H-benzimidazole-5-carboxamide], the 50% inhibitory concentration (IC50) at HDAC2 was above 200000 nM; on HDAC1, 326 nM; in the assay with U266 (multiple myelom) (U-266, 72 h) it was 340 nM; in assay [1] (PBMC, 72 h), above 20000 nM; in the assay on PaCa2 (pancreatic) (PaCa-2, 72 h), 1000 nM; with AMO-1 (plasmacytom) (AMO1, 72 h), above 20000 nM. Moreover, the IC50 on HDAC8 was 74 nM; on HDAC6 (setting [6]) it was 3.6 nM; at HDAC6 (setting [7]), 3.6 nM; at HDAC3, above 200000 nM.
In the case of `O=C(NO)c1ccc2nc(-c3ccc(-c4ccc(CN5CCOCC5)cc4)cc3)[nH]c2c1` [Example 190, N-hydroxy-2-[4′-(morpholin-4-ylmethyl)biphenyl-4-yl]-1H-benzimidazole-6-carboxamide trifluoroacetate], the IC50 is 13000 nM on HDAC2; 4000 nM on HDAC1; 3900 nM in the assay with U266 (multiple myelom) (U-266, 72 h); above 20000 nM in assay [1] (PBMC, 72 h); 2300 nM with PaCa2 (pancreatic) (PaCa-2, 72 h); 8100 nM in the assay with AMO-1 (plasmacytom) (AMO1, 72 h). For the same molecule, the IC50 was found to be 80 nM on HDAC8, 21 nM on HDAC6 (setting [6]), 21 nM on HDAC6 (setting [7]) and 910 nM on HDAC3.
Consider `O=C(NO)c1ccc2nc(-c3ccc(-c4cccc(Cl)c4)cc3)[nH]c2c1` [Example 151, 2-(3′-chlorobiphenyl-4-yl)-N-hydroxy-1H-benzimidazole-6-carboxamide], for which the IC50 in the assay on U266 (multiple myelom) (setting [2]) was 490 nM; in [1] (setting [3]), above 20000 nM; with PaCa2 (pancreatic) (setting [4]) it was 1000 nM; in the assay on AMO-1 (plasmacytom) (setting [5]) it was 1900 nM.
As for `CCc1ccc(-c2nc3ccc(C(=O)NO)cc3[nH]2)cc1` [Example 109, 2-(4-ethylphenyl)-N-hydroxy-1H-benzimidazole-6-carboxamide], the IC50 on HDAC2 turned out to be 165000 nM; on HDAC1 it was 6500 nM; at HDAC8, 1200 nM; on HDAC6 (setting [6]), 46 nM; at HDAC6 (setting [7]), 46 nM; at HDAC3, 2200 nM.
For the molecule `O=C(NO)c1ccc2nc(-c3ccc4c(c3)CCO4)[nH]c2c1` [Example 96, 2-(2,3-dihydro-1-benzofuran-5-yl)-N-hydroxy-1H-benzimidazole-6-carboxamide], the IC50 at HDAC2 stood at 58000 nM; on HDAC1, 5000 nM; at HDAC8, 220 nM; at HDAC6 (setting [6]) it was 5.2 nM; on HDAC6 (setting [7]), 5.2 nM; on HDAC3, 1300 nM.

The record behind these values is patent US10512634B2, “Benzimidazole derivates useful as inhibitors of mammalian histone deacetylase activity” (KANCERA AB, priority 2015, dated 2019).
